According to patent US10111955B2, “PEG derivative” (priority 2014, dated 2018):

Experiments:
[1] = test system: human breast cancer cell BT474; test: Test Example 6: human breast cancer cell BT474 transplanted into nude mouse; assay type: in vivo, BALB/c nude mouse; conditions: 5 mg/kg iv, once a week, for 2 weeks
Experimental: 1×10^7 cells of human breast cancer cell BT474 were transplanted into the right abdomen of a BALB/c nude mouse, and when the tumor volume reached 100 to 150 mm^3, drugs were administered. The administration was implemented once a week for two weeks.

[2] = test system: human breast cancer cell BT474; test: Test Example 4: human breast cancer cell BT474 transplanted into nude mouse; assay type: in vivo, BALB/c nude mouse; conditions: 100 mg/kg once a week, total dosage 200 mg/kg
Experimental: Compound (1a) was intravenously administered once a week at a dose of 200 mg/kg (the amount as converted to DFP-10917 was 4.8 mg/kg), and pemetrexed, which is a standard drug for lung cancer, was intraperitoneally administered once a week at a dose of 300 mg/kg. For the control, physiological saline was intravenously administered once a week. The observation was made for two weeks (administered two times in total). 1×10^7 cells of human breast cancer cell BT474 were transplanted into the right abdomen of a BALB/c nude mouse, and drugs were administered in the same manner as in Test Example 3. DFP-10917 and Compound (1a) were intravenously administered once a week, two times in total. For the control, physiological saline was administered once a week.

[3] = test system: human pancreatic cancer cell Panc-1; test: Test Example 5: human pancreatic cancer cell Panc-1 transplanted into nude mouse; assay type: in vivo, BALB/c nude mouse; conditions: 100 mg/kg iv, repeated four times, total dosage 400 mg/kg
Experimental: Compound (1a) was intravenously administered once a week at a dose of 200 mg/kg (the amount as converted to DFP-10917 was 4.8 mg/kg), and pemetrexed, which is a standard drug for lung cancer, was intraperitoneally administered once a week at a dose of 300 mg/kg. For the control, physiological saline was intravenously administered once a week. The observation was made for two weeks (administered two times in total). 5×10^6 cells of human pancreatic cancer cell Panc-1 were transplanted into the right abdomen of a BALB/c nude mouse, and drugs were administered in the same manner as in Test Example 3. Compound (1g) was intravenously administered once a week, two times in total, or twice a week. Gemcitabine was administered such that 100 mg/kg was administered in four divided portions over 3 days, and this intravenous administration was repeated four times in total. For the control, physiological saline was administered once a week.

[4] = test system: Human lung cancer cell A549 cells; test: Test Example 5 (second): human lung cancer cell A549 transplanted into nude mouse, Tables 5 and 6; assay type: in vivo, BALB/c nude mouse; conditions: once a day, for 2 weeks
Excerpt: Human lung cancer cell A549 cells were transplanted into the right abdomen of a BALB/c nude mouse, and after 11 days, at the time point at which the average tumor size reached 200 mm^3, drug administration was initiated.

pancreatic cancer cells = test: Test Example 1: pancreatic cancer cells transplanted into BALB/c nude mouse, tumor volume and body weight; assay type: in vivo; conditions: 4.5 mg/kg/day × 14 days, subcutaneous continuous infusion
Experimental: 5×10^6 cells of pancreatic cancer cells were transplanted into the right abdomen of a BALB/c nude mouse, and after 7 days, at the time point at which the average tumor size reached 100 mm^3, drug administration was initiated. Up to 29 days from the time of drug administration, the body weight of the mouse and the tumor volume were measured. The results are presented in FIG. 11, FIG. 12, and Table 1. Subcutaneous continuous infusion of 1-(2′-cyano-2′-deoxy-β-D-arabinofuranosyl)cytosine hydrochloride (DFP-10917) at a dose of 4.5 mg/kg/day was continuously performed for two weeks using a micropump embedded in the body of the mouse. In contrast, Compound (1a) was intravenously administered once a week at a dose of 100 mg/kg, 200 mg/kg, or 300 mg/kg. The dosage of this Compound (1a) is administration once a week at a dose of 2.4 mg/kg, 4.8 mg/kg, or 7.2 mg/kg, as converted to […]. For the control, a buffer solution (pH=5.0) of sodium acetate was administered.

[5] = test system: human lung cancer cell A549; test: Test Example 3: human lung cancer cell A549 transplanted into nude mouse; assay type: in vivo, BALB/c nude mouse; conditions: 300 mg/kg intraperitoneally once a week, total dosage 600 mg/kg, two weeks
Experimental: 5×10^6 cells of human lung cancer cell A549 were transplanted into the right abdomen of a BALE/c nude mouse, and after 14 days, at the time at which the average tumor size reached 127 mm^3, drug administration was initiated. Compound (1a) was intravenously administered once a week at a dose of 200 mg/kg (the amount as converted to DFP-10917 was 4.8 mg/kg), and pemetrexed, which is a standard drug for lung cancer, was intraperitoneally administered once a week at a dose of 300 mg/kg. For the control, physiological saline was intravenously administered once a week. The observation was made for two weeks (administered two times in total).

In the case of `CC(=O)O[C@H]1C(=O)[C@@]2(C)[C@H]([C@H](OC(=O)c3ccccc3)[C@]3(O)C[C@H](OC(=O)[C@H](O)[C@@H](NC(=O)c4ccccc4)c4ccccc4)C(C)=C1C3(C)C)[C@]1(OC(C)=O)CO[C@@H]1C[C@@H]2O` [Paclitaxel, paclitaxel], the “TGI (D 23, %) tumor growth inhibition ratio” value [1] is reported as 29.8% and the “Tumor Volume (D 23, mm^3)” value [1] is reported as 275 ± 39 mm^3.
With `Nc1ccn([C@@H]2O[C@H](CO)[C@@H](O)C2(F)F)c(=O)n1` [Gemcitabine, gemcitabine] the “TGI (tumor growth inhibition)” value [2] was 43, the “Tumor Volume” value [2] was 525 ± 95 and the “TGI (tumor growth inhibition)” value [3] was 63.6. For the same molecule, the “Tumor Volume” value ([3]; in mm³ (unit assumed)) was 370 ± 37.
For `CS(=O)(=O)CCNCc1ccc(-c2ccc3ncnc(Nc4ccc(OCc5cccc(F)c5)c(Cl)c4)c3c2)o1` [Lapatinib, lapatinib], the “TGI (D 29, %)” value ([4]; 100 mg/kg po) was 25.6% and the “Tumor Volume (D 29, mm^3)” value ([4]; 100 mg/kg po) was 898 ± 120 mm^3.
With `CCNCCNC(=O)c1c(C)[nH]c(/C=C2\C(=O)Nc3ccc(F)cc32)c1C` [De-ethylated form of sunitinib] the “TGI (D 29, %)” value ([4]; 50 mg/kg po) was 43.1% and the “Tumor Volume (D 29, mm^3)” value ([4]; 50 mg/kg po) was 687 ± 103 mm^3.
`Cl.N#C[C@H]1[C@H](O)[C@@H](CO)O[C@H]1n1ccc(N)nc1=O` [DFP-10917, 1-(2′-cyano-2′-deoxy-β-D-arabinofuranosyl)cytosine hydrochloride] was tested, and the “TGI (D 29, %) tumor growth inhibition” value (pancreatic cancer cells) was 37.7% and the “Tumor Volume (D 29, mm^3)” value (pancreatic cancer cells; Mean ± SEM) was 917 ± 72 mm^3.
`Nc1nc2[nH]cc(CCc3ccc(C(=O)N[C@@H](CCC(=O)O)C(=O)O)cc3)c2c(=O)[nH]1` [Pemetrexed, pemetrexed] was tested, and the “TGI (tumor growth inhibition)” value [5] was 30 and the “Tumor Volume” value ([5]; in mm³) was 818 ± 44.
